{"source": "patent US8158606B2", "about": "“β-L-2′-deoxynucleosides for the treatment of resistant HBV strains and combination therapies” (priority 2002, dated 2012)", "key": {"[1]": {"experiment": "In vitro stability of dival-L-dC in human plasma", "assay_type": "in vitro ADME", "conditions": "37° C.", "text": "Two additional metabolites (β-L-2′-deoxycytidine-5′-valine ester and β-L-2′-deoxycytidine-valine ester) were also noted."}, "[2]": {"conditions": "dival-L-dC 10 mg/kg oral", "text": "The drug was quantitated in plasma and in urine using HPLC analysis."}, "[3]": {"experiment": "Log P study, octanol-1 / phosphate buffer", "method": "To 1 mL of this solution, 1 mL of octanol-1 (B) saturated with 0.02 M phosphate buffer solution (A) was added. The resultant mixture was shaken and centrifuged; three samples from each phase was collected and analyzed by HPLC, as shown in Table 10.\nThe solution was then saturated with octanol-1 (B). To 1 mL of this solution, 1 mL of octanol-1 (B) saturated with 0.02 M phosphate buffer solution (A) was added. The resultant mixture was shaken and centrifuged; three samples from each phase was collected and analyzed by HPLC, as shown in Table 11."}, "[4]": {"experiment": "Stability study in buffer at pH 7.4, 7.20, 4.5 and 1.2", "assay_type": "physicochemical", "conditions": "no other compounds detected up to 48 hours"}, "[5]": {"experiment": "Bioavailability of the prodrugs of L-dC", "conditions": "oral administration to monkeys"}, "[6]": {"assay_type": "physicochemical", "conditions": "octanol-1 (B) / MilliQ water pH 6.5 (A′), Study 1 and Study 2, listed as L-dC-3′,5′-divalinyl ester hydrochloride", "method": "(§1) To 1 mL of this solution, 1 mL of octanol-1 (B) saturated with MilliQ water (A′) was added.\nas §1"}, "[7]": {"assay_type": "in vivo, cynomolgus monkey (Macaca fascicularis)", "text": "The drug was quantitated in plasma and urine with a liquid chromatography-mass spectrometry (LC-MS) technique."}, "[8]": {"test_system": "human plasma proteins", "assay_type": "in vitro ADME", "conditions": "ex vivo, ultrafiltration"}, "[9]": {"experiment": "Solubility study in water (HPLC calibration)", "conditions": "listed as 3′,5′-divalinyl ester hydrochloride of β-L-dC, hydrochloride"}, "[10]": {"conditions": "during the log P experiment in phosphate buffer"}}, "note": "Where “and” joins values, the source holds several entries; their conditions need not be identical. Identical values can stand only once. Counter-ions that a name gives are not always drawn. Like-named read-outs stand apart in the source and are kept apart here."}
{"molecule": "CC(C)[C@H](N)C(=O)OC[C@@H]1O[C@H](n2ccc(N)nc2=O)C[C@H]1OC(=O)[C@@H](N)C(C)C", "note": "[3′5′-dival-L-dC, 3,5′-L-Valine ester of 2′-deoxy-β-L-cytidine hydrochloride]", "values": [{"measurement": "in vitro half-life in human plasma", "setting": "[1]", "value": "approximately 39 min"}, {"measurement": "L-dC as share of drug excreted in the urine", "setting": "[2]", "value": "~89", "unit": "%"}, {"measurement": "administered oral dose recovered in urine after 72 hours", "setting": "[2]", "value": 31, "unit": "%"}, {"measurement": "administered oral dose recovered in urine within 8 hours", "setting": "[2]", "value": "Approximately 26%"}, {"measurement": "renal excretion of L-dU, share of the recovered dose", "setting": "[2]", "value": "approximately 10%"}, {"measurement": "dival-L-dC in plasma at 15 minutes post-dose", "setting": "[2]; detected in only one animal", "value": 0.35, "unit": "µM"}, {"measurement": "conversion of the divaline ester detected in the aqueous phase", "setting": "[3]; [10]", "value": 50, "unit": "%"}, {"measurement": "conversion of the divaline ester detected in the organic phase", "setting": "[3]; [10]", "value": 14, "unit": "%"}, {"measurement": "log P (octanol/water)", "setting": "[3]; octanol-1 / 0.02 M phosphate buffer pH 7.2", "value": "−0.86"}, {"measurement": "stability in words", "setting": "[4]", "value": "fully stable"}, {"measurement": "share of absorbed ester converted to L-dC", "setting": "[5]", "value": "more than 99%"}, {"measurement": "share of the oral dose absorbed", "setting": "[5]", "value": "approximately 73%"}, {"measurement": "P′ (B/A′)", "setting": "[6]", "value": "1.80 × 10^−3 and 1.77 × 10^−3"}, {"measurement": "Cmax of val-L-dC (unchanged prodrug)", "setting": "[7]; Oral (10 mg/kg dival-L-dC)", "value": "Not detected"}, {"measurement": "L-dC as share of drug excreted in the urine", "setting": "[7]; dival-L-dC 10 mg/kg IV", "value": "~93", "unit": "%"}, {"measurement": "administered dose excreted in urine within 2 hours", "setting": "[7]; dival-L-dC 10 mg/kg IV", "value": "58±3", "unit": "%"}, {"measurement": "renal excretion of L-dU, share of total recovered dose", "setting": "[7]; dival-L-dC 10 mg/kg IV", "value": "approximately 2.5%"}, {"measurement": "renal excretion of β-L-2′-deoxycytidine-5′-valine ester, share of total recovered dose", "setting": "[7]; dival-L-dC 10 mg/kg IV", "value": "~3.7", "unit": "%"}, {"measurement": "β-L-2′-deoxycytidine-5′-valine ester in plasma at 15 minutes", "setting": "[7]; dival-L-dC 10 mg/kg IV", "value": 3.23, "unit": "µM"}, {"measurement": "β-L-2′-deoxycytidine-5′-valine ester in plasma by 2 hours", "setting": "[7]; dival-L-dC 10 mg/kg IV", "value": 0.08, "unit": "µM"}, {"measurement": "dival-L-dC in plasma at 30 minutes", "setting": "[7]; dival-L-dC 10 mg/kg IV, 1 of 3 animals", "value": 0.36, "unit": "µM"}, {"measurement": "dival-L-dC in urine, share of the recovered dose", "setting": "[7]; dival-L-dC 10 mg/kg IV, one of three animals at 2 hours", "value": "approximately 0.15%"}, {"measurement": "L-dC as share of drug excreted in the urine", "setting": "[7]; dival-L-dC 10 mg/kg oral", "value": "~95", "unit": "%"}, {"measurement": "L-dC as share of plasma drug levels at Cmax", "setting": "[7]; dival-L-dC 10 mg/kg oral", "value": "> 99", "unit": "%"}, {"measurement": "administered oral dose recovered in urine after 72 hours", "setting": "[7]; dival-L-dC 10 mg/kg oral", "value": "39±8", "unit": "%"}, {"measurement": "administered oral dose recovered in urine within 4 hours", "setting": "[7]; dival-L-dC 10 mg/kg oral", "value": "~31±8", "unit": "%"}, {"measurement": "renal excretion of L-dU, share of total recovered dose", "setting": "[7]; dival-L-dC 10 mg/kg oral", "value": "approximately 2.5%"}, {"measurement": "renal excretion of β-L-2′-deoxycytidine-5′-valine ester, share of total recovered dose", "setting": "[7]; dival-L-dC 10 mg/kg oral", "value": "~0.2", "unit": "%"}, {"measurement": "L-dU concentration in plasma at 8 hours", "setting": "[7]; dival-L-dC 10 mg/kg oral, one animal", "value": 0.39, "unit": "µM"}, {"measurement": "binding to human plasma proteins", "setting": "[8]", "value": 13.3, "unit": "%"}, {"measurement": "Solubility (mol/L)", "setting": "[9]", "value": "more than 2.5 mol/L"}]}
